Experimental data taken from US20080027139A1, “Use of Alpha-Ketoglutarate and Related Compounds” (priority 2004, published 2008).
Like-named read-outs stand apart in the source and are kept apart here.

Assays:
[1] = tested on: sham-operated (SHO) and ovariectomized (OVX) Wistar female rats
Procedure: A study was conducted on Wistar female rats kept in standard weather conditions. […] Afterwards the female rates were randomly divided into 2 groups: ovariectomy were performed in all animals in group one (OVX) and placebo operation were done in the second group (SHO). Surgical procedures were performed under general anesthesia (rometare, ketamine and atropine in doses 2, 10 and 0.05 mg/kg of bodily weight respectively.
Studies were conducted on the animals from the two groups: females received experimental solutions from the seventh day following the operation (simulation of the first period of the lack of activity of the ovarian hormones) (Experiment I 1), females aged 7 months with a 5 month period in which there was no activity of hormonal ovaries (simulation of the period with a prolonged absence of the activity of ovarian hormones) (Experiment I 2) (Tab. 2).
In each of Experiments I1 and I2 40 animals was used for each experimental doses making a total of 240 animals.
Blood samples were collected immediately after slaughter, and the plasma removed by centrifugation was stored in a safe place for further biochemical analyses.
The entire cholesterol concentration was determined by means of commonly available analytical equipment using the spectrophotometric method.

[2] = tested on: volunteers with a relatively high level of cholesterol
Excerpt: The experiment lasted for the total of 42 days. […] During the experiment no quantitative or qualitative restrictions regarding the diet were introduced. In the period from day 1 to day 28 the patients' lipid profile was checked every seven days in order to determine the concentration of cholesterol, fractions of LDL and HDL and triglycerides. […] Subsequent measurements of the lipid profile were taken on 42nd day of the experiment.

[3] = tested on: Wistar rats with diet-induced hypercholesterolaemia; details: day 120; AKG doses 0.1 and 1 from day 61 for 60 days; p<0.05
Excerpt: Afterwards all animals received fodder enriched with 1% cholesterol (Sigma-Aldrich, Germany) and 10% lard in order to obtain hypercholesterolaemia. • 12 rats (6 females and 6 males) were killed on day 0 as an introduction control. • 12 rats (6 females and 6 males) were killed at day 30. • 12 rats (6 females and 6 males) were killed at day 60.
Remaining 48 rats were divided into 3 groups and the experiment continued for another 60 days on cholesteremic diet: • 1. Placebo group—24 rats (12 females and 12 males) • 2. 1 g AKG group—12 rats (6 females and 6 males) • 3. 0.1 g AKG group—12 rats (6 females and 6 males)
During the first 60 days of using cholesterol and lard enriched diet, the lipid profile was checked three times to determine the concentration of the entire cholesterol, the fraction of LDL and HDL and triglycerides. Measuring tests were performed a day before the said diet was commenced (day 0) and subsequently after 30 and 60 days of the application of the said diet. On the sixty first day of the experiment animals were divided into two groups: one receiving the placebo solution and the other receiving AKG solution (AKG in doses 0.1 and 1 (Table 9). All the time animals continued to receive experimental fodder. During the period when placebo and AKG solutions were administered, the lipid profile was checked on the 120th day of the experiment. […]

[4] = Volunteer 1, 1st week, chewable tablets of 1.28 g calcium alpha-ketoglutarate (1 g AKG), two tablets three times a day, day 1-28
[5] = Volunteer 1, 2nd week, calcium alpha-ketoglutarate tablets (1 g AKG), two tablets three times a day
[6] = Volunteer 1, 3rd week, calcium alpha-ketoglutarate tablets (1 g AKG), two tablets three times a day
[7] = Volunteer 1, 4th week, calcium alpha-ketoglutarate tablets (1 g AKG), two tablets three times a day
[8] = Volunteer 1, 6th week, after 2 weeks without AKG
[9] = Volunteer 2, 1st week, chewable tablets of 1.28 g calcium alpha-ketoglutarate (1 g AKG), two tablets three times a day, day 1-28
[10] = Volunteer 2, 2nd week, calcium alpha-ketoglutarate tablets (1 g AKG), two tablets three times a day
[11] = Volunteer 2, 3rd week, calcium alpha-ketoglutarate tablets (1 g AKG), two tablets three times a day
[12] = Volunteer 2, 4th week, calcium alpha-ketoglutarate tablets (1 g AKG), two tablets three times a day
[13] = Volunteer 2, 6th week, after 2 weeks without AKG
[14] = two volunteers, after a 14 day break in administering the preparation

In the case of `O=C(O)CCC(=O)C(=O)O` [AKG, alpha-ketoglutaric acid], the “effect on concentration of the entire cholesterol (in words)” value ([1]; OVX females, AKG dose 0.01 during 60 days, Experiment I-1, p=0.04, reaching the level of the control group) is reported as “statically significant decrease”, the “effect on concentration of the entire cholesterol (in words)” value ([1]; both doses 0.01 and 0.1, OVX and SHO groups, Experiment I-2 (prolonged lack of ovarian hormones)) is reported as “statistically significant decrease” and the “effect on concentration of the entire cholesterol (in words)” value ([1]; dose 1, females after ovariectomy relative to the control group, long-term absence of ovarian hormones (Experiment I-2)) is reported as “decreased”. For the same compound, the “effect on concentration of the entire cholesterol (in words)” value ([1]; dose 1, females after ovariectomy relative to the control group, short-term absence of ovarian hormones (Experiment I-1)) was “decreased”, the HDL level [2, 4] was 45 mg/dL and the Total cholesterol level [2, 4] was 194 mg/dL. For the same compound, the Triglycerides level [2, 4] was 197 mg/dL, the HDL level [2, 5] was 41 mg/dL and the Total cholesterol level [2, 5] was 196 mg/dL. The Triglycerides level [2, 5] was 304 mg/dL, the HDL level [2, 6] was 42 mg/dL and the Total cholesterol level [2, 6] was 171 mg/dL. For the same compound, the Triglycerides level [2, 6] was 269 mg/dL, the HDL level [2, 7] was 48 mg/dL and the Total cholesterol level [2, 7] was 157 mg/dL. It also gave a Triglycerides level [2, 7] of 259 mg/dL, an HDL level [2, 8] of 33 mg/dL and a Total cholesterol level [2, 8] of 197 mg/dL. The Triglycerides level [2, 8] was 375 mg/dL, the HDL level [2, 9] was 35 mg/dL and the Total cholesterol level [2, 9] was 190 mg/dL. It also gave a Triglycerides level [2, 9] of 122 mg/dL, an HDL level [2, 10] of 44 mg/dL and a Total cholesterol level [2, 10] of 213 mg/dL. The Triglycerides level [2, 10] was 101 mg/dL, the HDL level [2, 11] was 40 mg/dL and the Total cholesterol level [2, 11] was 199 mg/dL. It also gave a Triglycerides level [2, 11] of 199 mg/dL, an HDL level [2, 12] of 42 mg/dL and a Total cholesterol level [2, 12] of 189 mg/dL. For the same compound, the Triglycerides level [2, 12] was 187 mg/dL, the HDL level [2, 13] was 40 mg/dL and the Total cholesterol level [2, 13] was 215 mg/dL. For the same compound, the Triglycerides level [2, 13] was 220 mg/dL, the “effect on concentration of HDL (in words)” value ([2]; two volunteers, 28 days of tablets containing 1 g of AKG, 2 tablets 3 times a day) was “No significant effect” and the “effect on concentration of the entire cholesterol (in words)” value ([2]; two volunteers, after 28 days of tablets containing 1 g of AKG, 2 tablets 3 times a day) was “decrease”. For the same compound, the “change of concentration of HDL fraction after stopping (in words)” value [2, 14] was “statistically significant decrease”, the “change of concentration of the entire cholesterol after stopping (in words)” value [2, 14] was “increased” and the “change of concentration of triglycerides after stopping (in words)” value [2, 14] was “significant increase”. The “effect on concentration of triglycerides (in words)” value ([2]; two volunteers, from day 1 to day 28 of AKG tablets) was “increase” and the “effect on concentration of HDL (in words)” value [3] was “increase”.
